Data from patent US20260219274A1, “POLYOL SWEETNERS AND CARDIOVASCULAR AND THROMBOTIC EVENT RISK” (THE CLEVELAND CLINIC FOUNDATION, priority 2023, published 2026).

Key:
[1] = cited from earlier work
human whole blood = experiment: Whole blood in vitro thrombosis assay (collagen-coated microfluidic chip); format: cell-based
Method: Shear flow experiments of whole blood were performed with a Cellix Microfluidics System (Cellix, Dublin, Ireland) as previously described and outlined in additional methods.^41-43 The extent of platelet activation and adhesion to the collagen matrix was quantified using computer assisted tomographic analyses, as previously described.^40
Shear flow experiments of whole blood were performed with a Cellix Microfluidics System (Cellix, Dublin, Ireland) as previously described.^6-8 Before use, the micro channels of a Vena8 Fluoro+ biochip were coated with type 1 collagen (15 μL; 50 μg/mL) and each channel of the biochip then washed with PBS using the Mirus Nanopump. Images were taken with an HC Plan Apo 20X/0.7NA lens on a Leica DMI6000 inverted microscope equipped with an environmental chamber and a Hamamatsu ImagEM cooled CCD camera. […] Images of platelets adhering to the collagen matrix were recorded every 5 s. […] The extent of platelet activation and adhesion to the collagen matrix was quantified using computer assisted tomographic analyses as previously described.^5 Briefly, images of CD42b stained platelet thrombi were quantified using Image Pro plus software (Media Cybernetics, Rockville, Maryland, USA). The intensity threshold was chosen to select for specific staining and the integrated optical density (IOD, Area×Intensity) quantified. […]

[2] = tested on: human platelet-rich plasma; experiment: Aggregometry in platelet-rich plasma; format: cell-based; conditions: for platelet responsiveness / aggregation with varying polyol level: fixed submaximal ADP or TRAP6, varying pre-incubation levels
Method: Aggregometry in platelet rich plasma (PRP) was performed as previously described^40 and outlined in supplemental methods.
Platelet rich plasma (PRP) was isolated as previously described.^5 Whole blood was drawn from healthy donors and anticoagulated with sodium citrate (0.109 M). PRP was prepared by centrifuging at 100×g for 10 min at 22° C. Platelet poor plasma (PPP) was obtained by additional centrifugation of the remaining blood samples at 11,000×g for 2 min. Next, platelets were counted with a hemocytometer and the platelet concentration adjusted to 2×10^8/mL using PPP. PRPs were then pre-incubated with xylitol (Catalogue #X3375-5G, Sigma, St. Louis, MO, USA) at indicated concentrations or vehicle (saline) for 30 min at 22° C. After exposure to xylitol or vehicle, PRPs were maintained in suspension with constant stirring (600 rpm) at 37° C. Subsequently, platelet aggregation was induced by adding the agonists ADP (up to 5 μM, Catalogue #384, Chronolog, Havertown, PA, US) or TRAP6 (TFLLR-NH2, up to 10 μM, Catalogue #464, Tocris, Bristol, UK). For all platelet aggregometry experiments, blood was always processed within approx. 30 minutes of collection, and isolated platelets were used within 120 minutes of isolation. When used, pairs of vehicle vs. xylitol incubated PRP were always incubated and analyzed together (beginning, middle, end of platelet prep use) and after 120 minutes post isolation, PRPs were not used anymore.
Platelet rich plasma (PRP) and platelet poor plasma (PPP) was prepared as previously described with sodium citrate (0.109 M) as anticoagulant^51. Platelets were counted and concentrations adjusted to 2×10^8/mL with PPP. PRPs were pre-incubated with erythritol (Catalogue #E7500, Sigma, St. Louis, MO, USA), glucose (Catalogue #G7021, Sigma, St. Louis, MO, USA) or 1,5-AHG (Catalogue #29874, Cayman Chemical, Ann Arbor, Michigan, USA) (at indicated concentrations) or vehicle (saline) for 30 min at 22° C. After pre-incubation PRPs were maintained in suspension with constant stirring (600 rpm) at 37° C. and platelet aggregation was initiated using ADP (up to 5 μM, Catalogue #384, Chronolog, Havertown, PA, US) or TRAP6 (TFLLR-NH2, up to […], Catalogue #464, Tocris, Bristol, UK).

| SMILES | well tolerated daily dose ([1]; digestive tolerance) | effect on blood sugar / insulin ([1]; in vivo) | metabolism and excretion upon ingestion ([1]; in vivo) | rate of collagen-dependent platelet adhesion and thrombus formation (human whole blood; erythritol (45 μM), physiological shear conditions) | stimulus-dependent platelet aggregation response to ADP and TRAP6 ([2]; PRP incubated with the polyol versus vehicle, submaximal agonist) | platelet responsiveness / aggregation with varying polyol level [2] | erythritol concentration eliciting significant increase in ADP-stimulated aggregometry responses ([2]; threshold, FIG. 27) [µM] | erythritol concentration eliciting significant increase in thrombin-stimulated aggregometry responses ([2]; threshold, FIG. 27) [µM] | rate of collagen-dependent platelet adhesion and spreading (human whole blood; xylitol, physiological shear flow) | stimulus-dependent platelet activation and aggregation ([2]; xylitol 30 μM with sub-maximal ADP or TRAP6) | effect on PRP without agonist ([2]; xylitol 30 μM, brief incubation) |
| --- | --- | --- | --- | --- | --- | --- | --- | --- | --- | --- | --- |
| OC[C@@H](O)[C@@H](O)CO [erythritol] | up to 1 g/kg | no short-term insulinemic or glycemic effects | poorly metabolized and mostly excreted in the urine | significant enhancement | significant increase | dose-dependently enhanced | 18 | 18 | – | – | – |
| OC[C@@H](O)[C@H](O)[C@@H](O)CO [xylitol] | – | negligible impact | – | – | – | dose-dependent enhancement | – | – | substantially accelerated | marked enhancement | no effect |
